Data on 2 compounds can be found in patent US12491145B2, “Synthesis and purification of cannabigerol and its application” (SYMRISE AG, priority 2019, dated 2025).

One data set relates to B16 melanoma cells. The data set is described as follows: Determination of melanin content in B16 cells. The class given is cell-based, mouse. The method, then: (§1) Cell Culture. The cell line B16 (mouse melanocytes, obtained from ATCC and part of SimDerma platform) was maintained in supplemented DMEM medium containing 10% FBS and 1% antibiotics penicillin/streptomycin (DMEM complete medium) at 37° C. in a humidified atmosphere of 5% CO2.
(§2) Determination of Melanin Content and Cytotoxicity in B16 cells: To analyse the effect of cannabigerol (1) on melanogenesis, B16 melanoma cells were used as a cellular assay system to evaluate the depigmenting activity in cell cultures. B16 cells (4A5) were treated for 3 days with several doses of the compounds (cannabigerol (1) or kojic acid). The cells were washed with phosphate buffer saline (PBS) at the end of the treatment and dissolved in 1 N NaOH containing 10% DMSO for 1 h at 60° C. The absorbance at 405/490 nm was measured (TriStar LB 941 Berthold Technologies, GmbH & Co. KG) and the melanin content quantified with a reference standard of synthetic melanin (Sigma-Aldrich, St Louis, Mo., USA). Cytotoxicity was measured in parallel by the MTT assay to discard that melanin inhibition is not masked by cytotoxicity. Kojic acid was used as a positive control.

Another data set deals with B16 cells. The class given is cell-based, mouse. How it is done:
as §2

A further data set has as its target T1, tyrosinase (Mus musculus, UniProt P11344).
T1 construct: host or cells: B16 mouse melanocytes (melanoma line)
T1 sequence (P11344 19-533): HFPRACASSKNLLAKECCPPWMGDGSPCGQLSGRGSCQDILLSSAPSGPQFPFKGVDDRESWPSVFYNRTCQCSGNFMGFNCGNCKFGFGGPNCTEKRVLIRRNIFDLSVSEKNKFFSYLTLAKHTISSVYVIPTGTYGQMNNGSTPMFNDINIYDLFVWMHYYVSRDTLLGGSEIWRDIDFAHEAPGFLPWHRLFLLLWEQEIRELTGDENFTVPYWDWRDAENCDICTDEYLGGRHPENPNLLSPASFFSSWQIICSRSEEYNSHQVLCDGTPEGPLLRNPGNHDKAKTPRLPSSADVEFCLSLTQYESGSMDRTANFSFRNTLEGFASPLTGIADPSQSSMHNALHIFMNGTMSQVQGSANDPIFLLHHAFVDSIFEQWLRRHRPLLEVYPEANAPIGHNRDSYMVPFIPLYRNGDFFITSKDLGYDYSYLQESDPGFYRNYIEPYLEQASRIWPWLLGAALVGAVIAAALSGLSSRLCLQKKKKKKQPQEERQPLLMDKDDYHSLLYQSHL
The data set is described as follows: Measurement of tyrosinase activity in lysates of treated B16 cells (L-dopa, dopachrome formation, 475 nm). The format is cell-based. The method, then:
as §1
Measurements of Tyrosinase Activity: To measure the tyrosinase activity of the cells, B16 cells were treated for 3 days with several doses of the compounds (cannabigerol (1) or kojic acid), then lysed by incubation at 4° C. for 30 min in lysis buffer (20 mM sodium phosphate, pH 6.8, 1% Triton X-100, 1 mM PMSF, 1 mM EDTA) containing protease inhibitors cocktail. The lysates were centrifuged at 15.000 g for 10 min to obtain the supernatant as the source of tyrosinase. The reaction mixture contained 20 mM phosphate buffer, pH 6.8, 1.25 mM L-dopa (Sigma-Aldrich). After incubation at 37° C. for 30 min, dopachrome formation was monitored by measuring absorbance at a wavelength of 475 nm in a microplate reader (TriStar LB 941 Berthold Technologies, GmbH & Co. KG). Kojic acid was used as a positive control.

For `CCCCCc1cc(O)c(C/C=C(\C)CCC=C(C)C)c(O)c1` [Cannabigerol (1), Cannabigerol], the “melanin production, dose dependence” value in the data set on B16 melanoma cells is listed as “dose dependently prevented”. Besides, the inhibition (commonly the share of the control response that was lost under treatment) at 1 µg/mL in the data set on B16 melanoma cells (Mus musculus, B16, 72 h, read-out: inhibition of melanin production) was around 30%. Moreover, the cytotoxic effects result with B16 cells is given as “no cytotoxic effects”. Further, on tyrosinase (1 μg/ml cannabigerol vs 2 mM kojic acid, B16 cells, 3 days), the “inhibition of tyrosinase compared with positive control” value is recorded as “as potent as the effect of 2 mM of kojic acid”. In addition, at tyrosinase (B16 cells treated for 3 days), the “doses at which tyrosinase activity was inhibited” value was at least 0.5 µg/mL. Besides, at tyrosinase (B16 melanocytes), the “inhibition compared with reference inhibitor in the used test systems (tyrosinase activity, melanin production; FIG. 2 and 3)” value is reported as “stronger inhibition than the used reference inhibitor kojic acid”.

For `O=c1cc(CO)occ1O` [kojic acid, reference compound], in the data set on B16 melanoma cells (2 mM, B16 cells, 3 days), the “reduction of melanin production” value was “approx. 20%”.
